In the NIST ThermoML archive (doi:10.1021/je060170c):

Experiment: xn = mol fraction of the nth substance listed
Details: 101 kPa, Liquid; for viscosity: Anton Paar Stabinger viscometer

COc1ccccc1 [anisole] + Cc1ccccc1C
Details | mass density [kg/m3] | speed of sound [m/s] | viscosity [mPa·s]
288.15 K, x1 = 0.0915 | 893.348 | 1395 | 0.885
288.15 K, x1 = 0.198 | 905.888 | 1402.3 | 0.914
288.15 K, x1 = 0.368 | 924.439 | 1409 | 0.944
288.15 K, x1 = 0.4954 | 938.936 | 1415.7 | 0.979
288.15 K, x1 = 0.6554 | 957.421 | 1424.7 | 1.028
288.15 K, x1 = 0.766 | 970.279 | 1431.2 | 1.066
288.15 K, x1 = 0.868 | 982.607 | 1439.4 | 1.133
288.15 K, x1 = 0.916 | 988.769 | 1444.5 | 1.159
288.15 K, x1 = 0.949 | 992.756 | 1447.1 | 1.172
288.15 K, x1 = 1 | 998.44 | 1449.1 | 1.188
293.15 K, x1 = 0.0915 | 889.076 | 1374.4 | 0.821
293.15 K, x1 = 0.198 | 900.83 | 1381.7 | 0.844
293.15 K, x1 = 0.368 | 919.973 | 1388.3 | 0.868
293.15 K, x1 = 0.4954 | 934.513 | 1394.9 | 0.899
293.15 K, x1 = 0.6554 | 953.102 | 1403.9 | 0.942
293.15 K, x1 = 0.766 | 966.072 | 1410.4 | 0.975
293.15 K, x1 = 0.868 | 978.09 | 1418.6 | 1.035
293.15 K, x1 = 0.916 | 983.748 | 1424 | 1.058
293.15 K, x1 = 0.949 | 987.635 | 1426.6 | 1.072
293.15 K, x1 = 1 | 993.649 | 1428.5 | 1.084
298.15 K, x1 = 0.0915 | 885.509 | 1354 | 0.769
298.15 K, x1 = 0.198 | 897.159 | 1359.5 | 0.79
298.15 K, x1 = 0.368 | 916.136 | 1368.6 | 0.813
298.15 K, x1 = 0.4954 | 930.569 | 1375.7 | 0.841
298.15 K, x1 = 0.6554 | 948.998 | 1385.1 | 0.881
298.15 K, x1 = 0.766 | 961.882 | 1391.9 | 0.914
298.15 K, x1 = 0.868 | 973.792 | 1398.6 | 0.974
298.15 K, x1 = 0.916 | 979.418 | 1402 | 0.996
298.15 K, x1 = 0.949 | 983.27 | 1404.3 | 1.005
298.15 K, x1 = 1 | 989.104 | 1408 | 1.017
303.15 K, x1 = 0.0915 | 880.756 | 1333.4 | 0.718
303.15 K, x1 = 0.198 | 892.435 | 1339.3 | 0.735
303.15 K, x1 = 0.368 | 911.407 | 1348.8 | 0.753
303.15 K, x1 = 0.4954 | 925.824 | 1355.9 | 0.776
303.15 K, x1 = 0.6554 | 944.269 | 1365.2 | 0.811
303.15 K, x1 = 0.766 | 957.177 | 1371.8 | 0.84
303.15 K, x1 = 0.868 | 969.125 | 1378.1 | 0.893
303.15 K, x1 = 0.916 | 974.761 | 1381.2 | 0.912
303.15 K, x1 = 0.949 | 978.63 | 1383.3 | 0.922
303.15 K, x1 = 1 | 984.372 | 1386.7 | 0.931

COc1ccccc1 [anisole] + Cc1ccc(C)cc1
Details | mass density [kg/m3] | speed of sound [m/s] | viscosity [mPa·s]
288.15 K, x1 = 0.0822 | 875.328 | 1360.3 | 0.728
288.15 K, x1 = 0.187 | 888.441 | 1373.1 | 0.778
288.15 K, x1 = 0.31 | 904.181 | 1384.4 | 0.829
288.15 K, x1 = 0.47 | 925.057 | 1395.9 | 0.884
288.15 K, x1 = 0.637 | 947.54 | 1410.4 | 0.958
288.15 K, x1 = 0.747 | 962.692 | 1420.6 | 1.013
288.15 K, x1 = 0.822 | 973.119 | 1437 | 1.109
288.15 K, x1 = 0.888 | 982.387 | 1443 | 1.145
288.15 K, x1 = 0.949 | 991.051 | 1446.3 | 1.167
288.15 K, x1 = 1 | 998.44 | 1449.1 | 1.188
293.15 K, x1 = 0.0822 | 871.032 | 1339.5 | 0.674
293.15 K, x1 = 0.187 | 884.105 | 1352.5 | 0.717
293.15 K, x1 = 0.31 | 899.758 | 1364 | 0.761
293.15 K, x1 = 0.47 | 920.561 | 1375.3 | 0.809
293.15 K, x1 = 0.637 | 942.968 | 1389.9 | 0.875
293.15 K, x1 = 0.747 | 958.092 | 1400.3 | 0.925
293.15 K, x1 = 0.822 | 968.502 | 1416.7 | 1.013
293.15 K, x1 = 0.888 | 977.769 | 1422.5 | 1.046
293.15 K, x1 = 0.949 | 986.356 | 1425.8 | 1.066
293.15 K, x1 = 1 | 993.651 | 1428.5 | 1.084
298.15 K, x1 = 0.0822 | 866.765 | 1317.4 | 0.635
298.15 K, x1 = 0.187 | 879.807 | 1326.5 | 0.674
298.15 K, x1 = 0.31 | 895.413 | 1337.5 | 0.714
298.15 K, x1 = 0.47 | 916.177 | 1352.2 | 0.759
298.15 K, x1 = 0.637 | 938.559 | 1368.2 | 0.821
298.15 K, x1 = 0.747 | 953.665 | 1379.3 | 0.868
298.15 K, x1 = 0.822 | 964.094 | 1387.4 | 0.952
298.15 K, x1 = 0.888 | 973.344 | 1394.8 | 0.985
298.15 K, x1 = 0.949 | 981.943 | 1401.8 | 1.003
298.15 K, x1 = 1 | 989.105 | 1408 | 1.017
303.15 K, x1 = 0.0822 | 862.434 | 1296.9 | 0.597
303.15 K, x1 = 0.187 | 875.432 | 1306.5 | 0.628
303.15 K, x1 = 0.31 | 890.974 | 1317.6 | 0.662
303.15 K, x1 = 0.47 | 911.659 | 1332.7 | 0.7
303.15 K, x1 = 0.637 | 933.983 | 1349.1 | 0.754
303.15 K, x1 = 0.747 | 949.069 | 1360.5 | 0.798
303.15 K, x1 = 0.822 | 959.511 | 1368.5 | 0.875
303.15 K, x1 = 0.888 | 968.761 | 1375.6 | 0.903
303.15 K, x1 = 0.949 | 977.313 | 1382.3 | 0.918
303.15 K, x1 = 1 | 984.372 | 1387.7 | 0.931
